Data published in BindingDB's records for doi:10.1016/j.bmcl.2013.01.056 (Fudan University, 2013).
pIC50: −log10 of the molar value.

Target: Signal transducer and activator of transcription 3 (Homo sapiens, UniProt P40763)
Assay: Inhibition of IL-6-induced STAT3 pathway in human HepG2 cells by luciferase reporter gene assay

Chain of Signal transducer and activator of transcription 3 (P40763 whole entry): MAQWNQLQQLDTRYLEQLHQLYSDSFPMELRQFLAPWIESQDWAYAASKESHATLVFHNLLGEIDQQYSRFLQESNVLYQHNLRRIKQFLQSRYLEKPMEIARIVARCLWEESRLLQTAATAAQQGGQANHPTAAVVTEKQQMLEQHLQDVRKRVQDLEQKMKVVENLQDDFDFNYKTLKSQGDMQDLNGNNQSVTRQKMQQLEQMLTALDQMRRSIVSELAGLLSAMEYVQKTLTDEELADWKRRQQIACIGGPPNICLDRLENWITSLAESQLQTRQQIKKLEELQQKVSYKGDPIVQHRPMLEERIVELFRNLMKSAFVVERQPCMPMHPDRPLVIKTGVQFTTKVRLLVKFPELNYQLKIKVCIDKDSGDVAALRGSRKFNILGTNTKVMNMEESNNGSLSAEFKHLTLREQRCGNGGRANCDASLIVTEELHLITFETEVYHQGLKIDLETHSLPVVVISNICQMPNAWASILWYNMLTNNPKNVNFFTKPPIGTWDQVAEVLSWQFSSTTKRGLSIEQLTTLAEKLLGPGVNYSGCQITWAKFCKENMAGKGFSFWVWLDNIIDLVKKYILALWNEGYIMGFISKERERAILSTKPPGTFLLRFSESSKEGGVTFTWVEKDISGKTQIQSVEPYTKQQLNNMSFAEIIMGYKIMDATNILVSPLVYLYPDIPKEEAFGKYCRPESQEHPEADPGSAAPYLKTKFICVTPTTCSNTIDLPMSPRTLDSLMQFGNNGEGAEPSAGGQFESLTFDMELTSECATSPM

Compound: OCCNCc1cc(Br)ccc1OCc1ccc(Cl)cc1
- pIC50: 4.22

Compound: NS(=O)(=O)c1ccc(NCc2cc(Cl)ccc2OCc2ccccc2)cc1
- pIC50: 4.61

Compound: Oc1ccc(NCc2cc(Cl)ccc2OCc2ccc(Cl)cc2)cc1
- pIC50: 4.57
